Assay [1] has as its system 22Rv1-Enz^R. Put plainly: 22Rv1-Enz^R cell proliferation assay, GIC50 (Experimental Example 4). The note with it: Homo sapiens; 6-day culture, cell media changed every 24 hours. Format: cell-based. The procedure:
Selected compounds were tested in the human prostate cancer cell line, 22Rv1-Enz^R as described in Geun Taek Lee et al., Molecular Cancer Therapeutics, 20:490-9 (2021). These procedures are similar to that described in Experimental Example 1, above, except that the assay conditions are a 6-day culture with cell media changed every 24 hours.
In the Table: (+)—GIC50<20 μM; (++)—GIC50<10 μM; (+++)—GIC50<1 μM.

For assay [2], the system named is 22Rv1. Put plainly: 22Rv1 cell proliferation assay (Experimental Example 1, cell count). Format: cell-based. The note with it: Homo sapiens, 22Rv1, read-out: 22Rv1 cell count decrease at 10 μM for 48 hours. As to the method: The human prostate cancer cell line, 22Rv1 has been reported to express a high level of AR-V7. […] Standard culture media was RPMI-1640 supplemented with 10% fetal bovine serum. The test compound initially was dissolved in DMSO at 50 mM. This stock solution was then diluted as needed for the indicated concentrations. […]
In the Table: (+)—the cell count decreased between 0 and 20%; (++)—the cell count decreased […]; (+++)—the cell count decreased by more than 50%.

The mark [3] stands for this setting: 10 μM (method: four days), read-out: 22Rv1 cell count decrease at 10 μM.

Our source for the IC50 and inhibition values is US20230132823A1, “BI-FUNCTIONAL COMPOUNDS AND METHODS FOR TARGETED UBIQUITINATION OF ANDROGEN RECEPTOR” (MONTELINO THERAPEUTICS, INC., priority 2020, published 2023).

Counter-ions that a name gives are not always drawn. Like-named read-outs stand apart in the source and are kept apart here. Where a SMILES comes first, the peptide text is derived from it. [ ]: non-standard residue; d: D form. The star is where a group is joined. X4 = O=C(COc1c(-c2csc(N3CCOCC3)n2)ccc(F)c1F)NCCCCN*; X3 = O=C(NCCCCCCN*)c1cccc2sc(N3CCOCC3)nc12; Dip = N[C@H](C(=O)O)C(c1ccccc1)c1ccccc1; Chg = N[C@H](C(=O)O)C1CCCCC1; NMeA = CN[C@@H](C)C(=O)O

Molecule `O=C(COc1c(-c2csc(N3CCOCC3)n2)ccc(F)c1F)NCCCCCCNc1cccc2c1C(=O)N(C1CCC(=O)NC1=O)C2=O` (stereo not shown) [Example 1, 2-(2,3-difluoro-6-(2-morpholinothiazol-4-yl)phenoxy)-N-(6-((2-(2,6-dioxopiperidin-3-yl)-1,3-dioxoisoindolin-4-yl)amino)hexyl)acetamide] yielded an IC50 in assay [1] of less than 20 µM. Also, the inhibition at 10 µM in assay [2] (setting [3]) is less than 50%. Take `O=C(COc1c(-c2csc(N3CCOCC3)n2)ccc(F)c1F)NCCCCCCCCCCNc1cccc2c1C(=O)N(C1CCC(=O)NC1=O)C2=O` (stereo not shown) [Example 3, 2-(2,3-difluoro-6-(2-morpholinothiazol-4-yl)phenoxy)-N-(10-((2-(2,6-dioxopiperidin-3-yl)-1,3-dioxoisoindolin-4-yl)amino)decyl)acetamide]: in assay [1], the IC50 is less than 20 µM. The inhibition at 10 µM in assay [2] (setting [3]) was less than 50%. In the case of `CN[C@@H](C)C(=O)N[C@H](C(=O)N1CCC[C@H]1C(=O)N[C@H](C(=O)NCCCCNC(=O)COc1c(-c2csc(N3CCOCC3)n2)ccc(F)c1F)C(c1ccccc1)c1ccccc1)C1CCCCC1` [Example 25, (S)-1-((S)-2-cyclohexyl-2-((S)-2-(methylamino)propanamido)acetyl)-N-((S)-1-((4-(2-(2,3-difluoro-6-(2-morpholinothiazol-4-yl)phenoxy)acetamido)butyl)amino)-1-oxo-3,3-diphenylpropan-2-yl)pyrrolidine-2-carboxamide] (H-[NMeA][Chg]P[Dip]-X4), the inhibition at 10 µM in assay [2] is greater than 50%. For the molecule `COc1cc(C(=O)NCCOCCOCCOc2c(-c3csc(N4CCOCC4)n3)ccc(F)c2F)ccc1NC(=O)[C@@H]1N[C@@H](CC(C)(C)C)[C@](C#N)(c2ccc(Cl)cc2F)[C@H]1c1cccc(Cl)c1F` [Example 27, (2R,3S,4R,5S)-3-(3-chloro-2-fluorophenyl)-4-(4-chloro-2-fluorophenyl)-4-cyano-N-(4-((2-(2-(2-(2,3-difluoro-6-(2-morpholinothiazol-4-yl)phenoxy)ethoxy)ethoxy)ethyl)carbamoyl)-2-methoxyphenyl)-5-neopentylpyrrolidine-2-carboxamide], the inhibition at 10 µM in assay [2] (setting [3]) was greater than 50%. The same measure, in the same setting: with `COc1cc(C(=O)NCCCCNC(=O)COc2c(-c3csc(N4CCOCC4)n3)ccc(F)c2F)ccc1NC(=O)[C@@H]1N[C@@H](CC(C)(C)C)[C@](C#N)(c2ccc(Cl)cc2F)[C@H]1c1cccc(Cl)c1F` [Example 28, (2R,3S,4R,5S)-3-(3-chloro-2-fluorophenyl)-4-(4-chloro-2-fluorophenyl)-4-cyano-N-(4-((4-(2-(2,3-difluoro-6-(2-morpholinothiazol-4-yl)phenoxy)acetamido)butyl)carbamoyl)-2-methoxyphenyl)-5-neopentylpyrrolidine-2-carboxamide] the figure was greater than 50%. With `COc1cc(C(=O)NCCCCCCNC(=O)COc2c(-c3csc(N4CCOCC4)n3)ccc(F)c2F)ccc1NC(=O)[C@@H]1N[C@@H](CC(C)(C)C)[C@](C#N)(c2ccc(Cl)cc2F)[C@H]1c1cccc(Cl)c1F` [Example 29, (2R,3S,4R,5S)-3-(3-chloro-2-fluorophenyl)-4-(4-chloro-2-fluorophenyl)-4-cyano-N-(4-((6-(2-(2,3-difluoro-6-(2-morpholinothiazol-4-yl)phenoxy)acetamido)hexyl)carbamoyl)-2-methoxyphenyl)-5-neopentylpyrrolidine-2-carboxamide], in assay [2] (setting [3]), the inhibition at 10 µM is less than 50%.

Take `Cc1ncsc1-c1ccc([C@H](C)NC(=O)[C@@H]2C[C@@H](O)CN2C(=O)[C@@H](NC(=O)CCCCNC(=O)c2cccc3sc(N4CCOCC4)nc23)C(C)(C)C)cc1` [Example 30, N-(5-(((S)-1-((2S,4R)-4-hydroxy-2-(((S)-1-(4-(4-methylthiazol-5-yl)phenyl)ethyl)carbamoyl)pyrrolidin-1-yl)-3,3-dimethyl-1-oxobutan-2-yl)amino)-5-oxopentyl)-2-morpholinobenzo[d]thiazole-4-carboxamide]: the inhibition at 10 µM in assay [2] (setting [3]) was less than 50%. As for `CN[C@@H](C)C(=O)N[C@H](C(=O)N1CCC[C@H]1C(=O)N[C@H](C(=O)NCCCCCCNC(=O)c1cccc2sc(N3CCOCC3)nc12)C(c1ccccc1)c1ccccc1)C1CCCCC1` [Example 31, N-(6-((S)-2-((S)-1-((S)-2-cyclohexyl-2-((S)-2-(methylamino)propanamido)acetyl)pyrrolidine-2-carboxamido)-3,3-diphenylpropanamido)hexyl)-2-morpholinobenzo[d]thiazole-4-carboxamide] (H-[NMeA][Chg]P[Dip]-X3), the inhibition at 10 µM in assay [2] is greater than 50%. Turning to `O=C1CCC(N2C(=O)c3cccc(NCCCCCCNC(=O)c4nc(Br)n(-c5csc(N6CCOCC6)n5)c4Br)c3C2=O)C(=O)N1` (stereo not shown) [Example 33, 2,5-dibromo-N-(6-((2-(2,6-dioxopiperidin-3-yl)-1,3-dioxoisoindolin-4-yl)amino)hexyl)-1-(2-morpholinothiazol-4-yl)-1H-imidazole-4-carboxamide], the inhibition at 10 µM in assay [2] (setting [3]) fell in the range of 0 to 20%.

`CN[C@@H](C)C(=O)N[C@H](C(=O)N1Cc2cc(OCCOCCOCCOc3c(-c4csc(N5CCOCC5)n4)ccc(F)c3F)ccc2C[C@H]1C(=O)N[C@@H]1CCCc2ccccc21)C(C)(C)C` [Example 36, (S)-7-(2-(2-(2-(2,3-difluoro-6-(2-morpholinothiazol-4-yl)phenoxy)ethoxy)ethoxy)ethoxy)-2-((S)-3,3-dimethyl-2-((S)-2-(methylamino)propanamido)butanoyl)-N-((R)-1,2,3,4-tetrahydronaphthalen-1-yl)-1,2,3,4-tetrahydroisoquinoline-3-carboxamide dihydrochloride]: the inhibition at 10 µM in assay [2] (setting [3]) is greater than 50%. Regarding `Cc1ccc(-c2csc(N3CCOCC3)n2)c(OCC(=O)NCCCCC(=O)N[C@H](C(=O)N2C[C@H](O)C[C@H]2C(=O)N[C@@H](C)c2ccc(-c3scnc3C)cc2)C(C)(C)C)c1C` [Example 37, (2S,4R)-1-((S)-2-(5-(2-(2,3-dimethyl-6-(2-morpholinothiazol-4-yl)phenoxy)acetamido)pentanamido)-3,3-dimethylbutanoyl)-4-hydroxy-N-((S)-1-(4-(4-methylthiazol-5-yl)phenyl)ethyl)pyrrolidine-2-carboxamide], the concentration for half-maximal inhibition (IC50) in assay [1] is less than 1 µM.

Molecule `Cc1ncsc1-c1ccc([C@H](C)NC(=O)[C@@H]2C[C@@H](O)CN2C(=O)[C@@H](NC(=O)CCC(=O)NCCCOc2c(-c3csc(N4CCOCC4)n3)ccc(F)c2F)C(C)(C)C)cc1` [Example 38, N^1-(3-(2,3-difluoro-6-(2-morpholinothiazol-4-yl)phenoxy)propyl)-N^4-((S)-1-((2S,4R)-4-hydroxy-2-(((S)-1-(4-(4-methylthiazol-5-yl)phenyl)ethyl)carbamoyl)pyrrolidin-1-yl)-3,3-dimethyl-1-oxobutan-2-yl)succinamide] yielded an IC50 in assay [1] of less than 20 µM.

`Cc1ncsc1-c1ccc([C@H](C)NC(=O)[C@@H]2C[C@@H](O)CN2C(=O)[C@@H](NC(=O)CCC(=O)NCCOCCOc2c(-c3csc(N4CCOCC4)n3)ccc(F)c2F)C(C)(C)C)cc1` [Example 39, N^1-(2-(2-(2,3-difluoro-6-(2-morpholinothiazol-4-yl)phenoxy)ethoxy)ethyl)-N^4-((S)-1-((2S,4R)-4-hydroxy-2-(((S)-1-(4-(4-methylthiazol-5-yl)phenyl)ethyl)carbamoyl)pyrrolidin-1-yl)-3,3-dimethyl-1-oxobutan-2-yl)succinamide] displayed a half-inhibitory concentration (IC50) in assay [1] of less than 20 µM.

Consider `Cc1ncsc1-c1ccc([C@H](C)NC(=O)[C@@H]2C[C@@H](O)CN2C(=O)[C@@H](NC(=O)CNCCOCCOc2c(-c3csc(N4CCOCC4)n3)ccc(F)c2F)C(C)(C)C)cc1` [Example 40, (2S,4R)-1-((S)-2-(2-((2-(2-(2,3-difluoro-6-(2-morpholinothiazol-4-yl)phenoxy)ethoxy)ethyl)amino)acetamido)-3,3-dimethylbutanoyl)-4-hydroxy-N-((S)-1-(4-(4-methylthiazol-5-yl)phenyl)ethyl)pyrrolidine-2-carboxamide], for which the IC50 in assay [1] is less than 1 µM. Still for that read-out and setting: the figure for `Cc1ncsc1-c1ccc([C@H](C)NC(=O)[C@@H]2C[C@@H](O)CN2C(=O)[C@@H](NC(=O)CCCCOc2c(-c3csc(N4CCOCC4)n3)ccc(F)c2F)C(C)(C)C)cc1` [Example 41, (2S,4R)-1-((S)-2-(5-(2,3-difluoro-6-(2-morpholinothiazol-4-yl)phenoxy)pentanamido)-3,3-dimethylbutanoyl)-4-hydroxy-N-((S)-1-(4-(4-methylthiazol-5-yl)phenyl)ethyl)pyrrolidine-2-carboxamide] is less than 10 µM; for `Cc1ncsc1-c1ccc([C@H](C)NC(=O)[C@@H]2C[C@@H](O)CN2C(=O)[C@@H](NC(=O)CCCCOc2c(F)ccc3sc(N4CCOCC4)nc23)C(C)(C)C)cc1` [Example 42, (2S,4R)-1-((S)-2-(5-((5-fluoro-2-morpholinobenzo[d]thiazol-4-yl)oxy)pentanamido)-3,3-dimethylbutanoyl)-4-hydroxy-N-((S)-1-(4-(4-methylthiazol-5-yl)phenyl)ethyl)pyrrolidine-2-carboxamide] it is less than 10 µM. Same read-out and setting: with `Cc1ncsc1-c1ccc([C@H](C)NC(=O)[C@@H]2C[C@@H](O)CN2C(=O)[C@@H](NC(=O)CCCCCCOc2c(F)ccc3sc(N4CCOCC4)nc23)C(C)(C)C)cc1` [Example 43, (2S,4R)-1-((S)-2-(7-((5-fluoro-2-morpholinobenzo[d]thiazol-4-yl)oxy)heptanamido)-3,3-dimethylbutanoyl)-4-hydroxy-N-((S)-1-(4-(4-methylthiazol-5-yl)phenyl)ethyl)pyrrolidine-2-carboxamide] the figure was less than 20 µM.

The term IC50 denotes the concentration needed to halve the response being measured. A high value points to weaker potency in that assay.
